In test [1] the target is T1, MtmC (Streptomyces argillaceus, UniProt Q194Q4).
T1 sequence (Q194Q4 1-420): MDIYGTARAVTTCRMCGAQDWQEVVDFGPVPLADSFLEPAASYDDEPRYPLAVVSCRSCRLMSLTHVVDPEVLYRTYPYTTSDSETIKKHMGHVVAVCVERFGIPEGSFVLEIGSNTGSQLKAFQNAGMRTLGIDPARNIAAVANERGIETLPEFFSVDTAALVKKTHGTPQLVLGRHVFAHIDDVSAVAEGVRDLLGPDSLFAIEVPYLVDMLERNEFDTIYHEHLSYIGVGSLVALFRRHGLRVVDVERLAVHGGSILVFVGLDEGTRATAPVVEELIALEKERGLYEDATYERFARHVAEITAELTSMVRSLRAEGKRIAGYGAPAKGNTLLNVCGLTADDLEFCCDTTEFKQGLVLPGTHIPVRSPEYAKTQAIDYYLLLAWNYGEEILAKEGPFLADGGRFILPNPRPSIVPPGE
The experiment in a line: crystal structure, […] Å. As to conditions: binary complex; central-domain site; crystals pH 5.5. The test is classed as binding.

The target of test [2] is T1, MtmC. Nature of the test: crystal structure, […] Å. Type of test: binding. The note with it: binary complex; C-terminal domain site; crystals pH 5.5.

For `C[S+](CC[C@H](N)C(=O)O)C[C@H]1O[C@@H](n2cnc3c(N)ncnc32)[C@H](O)[C@@H]1O` (some centres unmarked) [SAM], the “crystal structure, 2.2 Å” value on MtmC [1] is 4RVD (complex with SAM). Regarding `Cc1cn([C@H]2C[C@H](O)[C@@H](COP(=O)(O)OP(=O)(O)O)O2)c(=O)[nH]c1=O` [TDP], on MtmC [2], the “crystal structure, 2.7 Å” value was 4RVF (complex with TDP).

The record behind these values is PMC4406830 (Biochemistry, 2015).
